Numbering of substitutions follows the chain as printed. A value given as a limit tells only on which side of the number the result lay.

Experiment [1] has as its target T1, RXRα (Homo sapiens, UniProt P19793).
T1 construct: expressed in transfected cells
T1 sequence (P19793 1-462): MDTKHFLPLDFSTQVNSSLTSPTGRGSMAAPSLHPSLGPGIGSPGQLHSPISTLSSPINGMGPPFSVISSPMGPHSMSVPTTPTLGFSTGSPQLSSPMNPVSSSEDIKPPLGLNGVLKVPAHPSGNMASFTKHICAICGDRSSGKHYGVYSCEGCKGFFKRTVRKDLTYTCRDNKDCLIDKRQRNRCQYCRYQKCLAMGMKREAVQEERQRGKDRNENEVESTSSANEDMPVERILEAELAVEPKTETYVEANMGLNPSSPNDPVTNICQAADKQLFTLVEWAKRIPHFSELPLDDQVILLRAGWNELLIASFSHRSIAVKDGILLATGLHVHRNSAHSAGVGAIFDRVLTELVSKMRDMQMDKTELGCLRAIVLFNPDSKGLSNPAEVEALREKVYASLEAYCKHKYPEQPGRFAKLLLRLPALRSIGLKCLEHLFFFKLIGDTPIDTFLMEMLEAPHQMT
In words: holoreceptor transactivation assay, RXRα. Format: cell-based. As to conditions: for EC50: holoreceptor assay, read-out: RXR Trans EC50 α; for Emax: relative to 10^-6 M cyclopropyl penta-2,4-dienoic acid reference, read-out: % efficacy, RXRα transactivation. The source says: (§1) Other assays described below, measure the ability of the compounds of the present invention to bind to, and/or activate various retinoid receptor subtypes. When in these assays a compound binds to a given receptor subtype and activates the transcription of a reporter gene through that subtype, then the compound is considered an agonist of that receptor subtype. […] In the below described assays the ability of the compounds to bind to RARα, RARβ, RARγ, RXRα, RXRβ and RXRγ receptors, and the ability or inability of the compounds to activate transcription of a reporter gene through these receptor subtypes can be tested. […] However, some of the compounds of the invention may behave as retinoid antagonists or partial antagonists and/or as inverse agonists. Because of the complex distribution of the different retinoid receptors in various organs of the mammalian body partial agonists and partial antagonists and compounds which have the characteristics of both may lend themselves to particularly useful therapeutic applications and may avoid serious side effects of conventional retinoid drugs.
(§2) A holoreceptor transactivation assay and a ligand binding assay which measure the antagonist/agonist like activity of the compounds of the invention, or their ability to bind to the several retinoid receptor subtypes, respectively, are described in published PCT Application No. WO WO93/11755 (particularly on pages 30-33 and 37-41) published on Jun. 24, 1993, the specification of which is also incorporated herein by reference. A detailed experimental procedure for holoreceptor transactivations has been described by Heyman et al. Cell 68, 397-406, (1992); Allegretto et al. J. Biol. Chem. 268, 26625-26633, and Mangelsdorf et al. The Retinoids: Biology, Chemistry and Medicine, pp 319-349, Raven Press Ltd., New York, which are expressly incorporated herein by reference. The results obtained in this assay are expressed in EC50 numbers, as they are also in the chimeric receptor transactivation assay. The results of ligand binding assay are expressed in Kd numbers. (See Cheng et al. Biochemical Pharmacology Vol. 22 pp 3099-3108, expressly incorporated herein by reference.)
(§3) Table 1 discloses the activity of certain exemplary compounds of the invention in the above-described chimeric receptor transactivation assay, holoreceptor transactivation assay and a ligand binding assays. Particularly, the transactivation data pertaining to RAR receptors were obtained in the chimeric assay, and the data pertaining to transactivation of RXR receptors were obtained in the holoreceptor transactivation assay.

The target in experiment [2] is T2, RARβ (Homo sapiens, UniProt P10826).
T2 sequence (P10826 1-448 isoform P10826-2): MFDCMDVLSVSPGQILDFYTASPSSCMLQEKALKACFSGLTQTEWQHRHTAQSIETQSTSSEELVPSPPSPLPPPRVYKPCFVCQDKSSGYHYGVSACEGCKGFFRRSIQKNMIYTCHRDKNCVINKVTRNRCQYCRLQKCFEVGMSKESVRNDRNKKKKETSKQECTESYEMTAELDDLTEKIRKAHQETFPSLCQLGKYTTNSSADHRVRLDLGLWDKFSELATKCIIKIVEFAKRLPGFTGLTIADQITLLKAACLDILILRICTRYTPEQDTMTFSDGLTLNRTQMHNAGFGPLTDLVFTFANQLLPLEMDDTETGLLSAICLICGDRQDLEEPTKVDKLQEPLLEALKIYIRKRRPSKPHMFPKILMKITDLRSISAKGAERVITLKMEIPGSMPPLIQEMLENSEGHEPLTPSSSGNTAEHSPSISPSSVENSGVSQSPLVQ
In words: ligand binding assay, RARβ. Particulars: read-out: RAR Bind Ki β.
Description: as §1, §2, §3

Experiment [3] concerns the target T1, RXRα. The experiment can be described thus: ligand binding assay, RXRα. Particulars: read-out: RXR Bind Ki α.
Description: as §1, §2, §3

In experiment [4] the target is T3, RXRγ (Mus musculus, UniProt P28705).
T3 construct: expressed in transfected cells
T3 sequence (P28705 1-463): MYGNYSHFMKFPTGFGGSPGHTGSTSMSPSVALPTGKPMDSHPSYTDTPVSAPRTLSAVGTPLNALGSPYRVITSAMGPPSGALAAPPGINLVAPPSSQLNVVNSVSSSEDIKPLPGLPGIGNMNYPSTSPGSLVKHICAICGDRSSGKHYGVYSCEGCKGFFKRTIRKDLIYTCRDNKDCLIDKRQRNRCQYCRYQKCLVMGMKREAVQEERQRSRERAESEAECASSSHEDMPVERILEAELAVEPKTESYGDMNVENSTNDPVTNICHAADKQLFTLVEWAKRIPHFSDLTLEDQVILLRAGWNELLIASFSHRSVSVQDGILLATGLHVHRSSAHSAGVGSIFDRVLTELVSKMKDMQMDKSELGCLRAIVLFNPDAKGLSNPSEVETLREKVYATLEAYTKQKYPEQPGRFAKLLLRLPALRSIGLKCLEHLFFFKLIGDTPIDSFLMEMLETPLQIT
The experiment can be described thus: holoreceptor transactivation assay, RXRγ. In kind it is cell-based. Particulars: for EC50: holoreceptor assay, read-out: RXR Trans EC50 γ; for Emax: relative to 10^-6 M cyclopropyl penta-2,4-dienoic acid reference, read-out: % efficacy, RXRγ transactivation.
Description: as §1, §2, §3

In experiment [5] the target is T4, RXRγ (Homo sapiens, UniProt P48443).
T4 sequence (P48443 1-463): T3 sequence (P28705 1-463) with T13A, F15Y, V31A, P34S, S228T, S230G, V258M, S450T
The experiment can be described thus: ligand binding assay, RXRγ. Particulars: read-out: RXR Bind Ki γ.
Description: as §1, §2, §3

Regarding `CC(C)N1CCC(C)(C)c2ccc(N(CC3CC3)c3ccc(C(=O)O)cc3)cc21` [Compound 40, 4-[(1-Isolpropyl-4,4-dimethyl-1,2,3,4-tetrahydroquinolin-7-yl)(cylopropylmethyl)amino]benzoic acid], the EC50 amounted to 0.1 nM in experiment [1] and 0.2 nM in experiment [4]. The Emax amounted to 110% in experiment [1] and 105% in experiment [4]. Also, the Ki stood at 24000 nM in experiment [2], 9 nM in experiment [3] and 34 nM in experiment [5].
`CCN(c1ccc(C(=O)O)cc1)c1ccc2c(c1)N(C(C)C)CCC2(C)C` [Compound 38, 4-[(1-Isopropyl-4,4-dimethyl-1,2,3,4-tetrahydroquinolin-7-yl)ethylamino]benzoic acid]: the EC50 in experiment [1] is 0.6 nM; in experiment [4] it was 1 nM. In addition, the Emax in experiment [1] was 114%; in experiment [4], 109%. In addition, the Ki in experiment [2] is above 10000 nM; in experiment [3], 10 nM; in experiment [5], 27 nM.
Take `Cc1cc2c(cc1N(C)c1ccc(C(=O)O)cc1)C(C)(C)CCN2C(C)C` [Compound 22, 4-[(1-Isopropyl-4,4,7-trimethyl-1,2,3,4-tetrahydroquinolin-6-yl)methylamino]benzoic acid]: the EC50 in experiment [1] and in experiment [4] was 1000 nM each time. The Emax in experiment [1] was 80%; in experiment [4], 100%. Moreover, the Ki in experiment [2] was above 10000 nM; in experiment [3] it was 1200 nM; in experiment [5], above 1000 nM.
